# Assay results published in patent US20040116516A1 (Boehringer Ingelheim Pharma GmbH & Co. KG, priority 2002, published 2004).
# System: arachidonic acid induced mouse ear inflammation
# Assay: arachidonic acid induced mouse ear inflammation test (MPO as index of neutrophil accumulation)
# Type: in vivo, mice
# Conditions: for maximum inhibitory effect: group5; for effect on arachidonic acid induced ear inflammation in mice (in words): single compounds, oral administration
# Procedure: Female albino mice (Han:NMRI) obtained from Interfauna and weighing about 20-25 g were used. The animals were provided with standardised pellet diet (Altromin 8013) and had tap water freely available. The animals were accommodated in a climatized room with a 12 hours light/dark cycle and kept in groups.
# The compound of formula IA and meloxicam were administered orally (0.2 ml/10 g bw) 30 min. before arachidonic acid challenge. Meloxicam was given twice: one dose 16 hours and the second dose 30 minutes before challenge. For every day there was a concurrent control. Then number of animals per group was 7. The study compounds were suspended in 1% methylcellulose (Tylose MH 300, Fluka, CH-9470 Buchs). The experiment was run in five groups. Every group contained one control, two doses of meloxicam, two doses of (IA), and one dose of the combination of the two compounds.
# Mice were lightly anesthetized by ether and 1 mg arachidonic acid (10 μl) was applied to each side of the left ear. […] The animals were sacrificed by ether 6 hours later, and a biopsy (diameter 8 mm) was punched out from both ears to assess an increase of neutrophils in the left ear compared with the right ear. Tissue samples were homogenized in 1 ml 0.5% HTAB (Hexadecyl-trimethyl-ammonium-bromide; Sigma H-5882; solved in 0.05 M phosphate buffer, pH 6.0) using a tissue homogenizer (IKA-Ultraturrax T5; Janke & Kunkel, Staufen/Breisgau) at 30000 RPM for 15 seconds. After centrifugation (16000 G, 5 min) the supernatants were frozen until processing for myeloperoxidase (MPO). Determination in the supernatants for MPO, a neutrophil marker enzyme, served as a quantitative index for the neutrophil accumulation.
# MPO was determined spectrophotometrically at 450 nm using a micro plate version of the method of Bradley (1982) and a micro plate reader (Vmax; Molecular Devices, Palo Alto) suitable for kinetic measurements and expressed as mean optical density per minute.
# For each individual the response myeloperoxidase activity (MPO) in optical density per minute (oD/min) was measured.
# For the comparisons the nonparametric statistical methods Kruskal-Wallis-One-Way-ANOVA and the Wilcoxon-Two-Sample-Test (2 sided) have been used. For the first and last comparisons also Bonferroni-Holm adjusted p-values have been calculated.
smiles,measurement,setting,value
CCOC(=O)N=C(N)c1ccc(OCc2cccc(COc3ccc(C(C)(C)c4ccc(O)cc4)cc3)c2)cc1,maximum inhibitory effect,supra-maximum doses 0.8 and 1.6 mg/kg p.o.,66%
same,effect on arachidonic acid induced ear inflammation in mice (in words),,inhibited arachidonic acid induced ear inflammation in mice
"Cc1cnc(NC(=O)C2=C(O)c3ccccc3S(=O)(=O)N2C)s1 [Meloxicam, meloxicam]",maximum inhibitory effect,supra-maximum doses 16 and 32 mg/kg p.o.,37%
same,effect on arachidonic acid induced ear inflammation in mice (in words),,inhibited arachidonic acid induced ear inflammation in mice
